Source: patent US7786117B2, “Therapeutic substituted thiazolidinones, oxazolidinones, and related compounds” (Allergan, Inc., priority 2008, dated 2010)

Tested on: lashes and adjacent hairs of the eyelids
Test: Observation of lash and hair growth in glaucoma patients treated with bimatoprost in only one eye
Assay type: in vivo, human
Excerpt: In the course of treating patients having glaucoma, treatment may only be appropriate in one eye. […] The lash appearance on the lids of the treated eyes would have appeared quite attractive if it represented a bilateral phenomenon. As a result of its asymmetric nature, the long lashes on one side could be construed as disturbing from a cosmetic standpoint. A systemic examination was preformed as a result of the asymmetric phenomenon. It soon became apparent that this altered appearance was not an isolated finding.
The changes in the lashes were apparent on gross inspection in several patients once attention was focused on the issue. In those with light colored hair and lashes, the differences were only seen easily with the aid of the high magnification and lighting capabilities of the slit lamp biomicroscope. In the course of glaucoma follow-up examination, attention is generally immediately focused on the eye itself. As a result of the high power magnification needed only one eye is seen at a time and the eye is seen at a high enough power that the lashes are not in focus. At these higher powers, any lash asymmetry between the two eyes is not likely to be noticed except by careful systematic comparison of the lashes and adjacent hairs of the eyelids of the two eyes.
Observed parameters leading to the conclusion that more robust hair growth occurred in the treatment area following administration of the prostaglandin analogue were multiple. They included increased length of lashed, increased number of lashes along the normal lash line, increased thickness and luster of lashes, increased auxiliary lash-like terminal hair in transitional areas adjacent to areas of normal lash growth, increased auxiliary lash-like terminal hairs at the medial and lateral canthal area, increased pigmentation of the lashes, increased numbers, increased length, as well as increased luster, and thickness of fine hair on the skin of the adjacent lid, and finally, increased perpendicular angulation of lashes and lash-like terminal hairs.

In the case of CCNC(=O)CCC/C=C\C[C@@H]1[C@@H](/C=C/[C@@H](O)CCc2ccccc2)[C@H](O)C[C@@H]1O [bimatoprost], the “lash appearance in the treated eye versus the non-treated eye” value (a glaucoma patient treated in one eye only) is reported as “longer, thicker, and fuller in the treated eye than in the non-treated eye”, the “differences in the lashes and adjacent hairs of the treated side” value (all patients taking the drug on a unilateral basis for longer than 6 months) is reported as “Definite differences could be identified to varying degrees” and the “hair growth in treated versus control areas, multiple parameters of hair appearance” value (many subjects, length, number, thickness, luster, pigmentation, angulation of lashes) is reported as “hair growth is stimulated”.
